Experimental data: patent publication US12428377B2, “Sodium-hydrogen exchanger 3 inhibitor compounds” (Eli Lilly and Company, priority 2019, dated 2025)

Molecular target: T1, human NHE3 (Homo sapiens, UniProt P48764)
T1 construct: myc; expressed in transfected cells
T1 sequence (P48764 26-834): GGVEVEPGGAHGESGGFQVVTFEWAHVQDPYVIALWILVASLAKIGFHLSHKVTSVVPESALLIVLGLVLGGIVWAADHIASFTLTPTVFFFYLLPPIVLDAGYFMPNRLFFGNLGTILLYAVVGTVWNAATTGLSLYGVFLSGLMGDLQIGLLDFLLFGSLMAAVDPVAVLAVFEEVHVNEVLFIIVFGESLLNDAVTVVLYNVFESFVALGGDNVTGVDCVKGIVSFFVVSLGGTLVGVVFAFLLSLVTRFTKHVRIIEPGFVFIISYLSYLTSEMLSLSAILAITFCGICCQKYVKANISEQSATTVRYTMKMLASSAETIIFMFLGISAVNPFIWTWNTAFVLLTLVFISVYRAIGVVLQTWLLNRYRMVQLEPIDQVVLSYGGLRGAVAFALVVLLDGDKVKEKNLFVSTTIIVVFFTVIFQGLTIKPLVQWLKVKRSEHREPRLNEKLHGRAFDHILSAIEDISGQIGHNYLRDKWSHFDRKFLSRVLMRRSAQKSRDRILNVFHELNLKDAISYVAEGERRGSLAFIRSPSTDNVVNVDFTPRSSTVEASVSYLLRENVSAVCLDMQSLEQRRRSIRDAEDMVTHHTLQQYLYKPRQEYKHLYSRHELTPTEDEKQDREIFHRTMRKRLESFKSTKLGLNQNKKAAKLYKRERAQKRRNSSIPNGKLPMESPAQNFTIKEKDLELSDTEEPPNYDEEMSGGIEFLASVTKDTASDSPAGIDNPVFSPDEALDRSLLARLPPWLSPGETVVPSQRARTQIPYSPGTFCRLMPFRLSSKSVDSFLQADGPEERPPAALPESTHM
Experiment: In vitro NHE3 inhibition activity (intracellular pH recovery, BCECF-AM, NHD C8 cells overexpressing human NHE3)
Format: cell-based
Conditions: geometric mean of individual IC50
From the text: In Vitro NHE3 Inhibition Activity
To create an NHE3 assay, cells selectively expressing NHE3 are generated by overexpressing human NHE3 in an endogenously NHE-deficient cell line. The NHE-deficient cell line is created by chemical-induced mutagenesis. After the mutagenesis, NHE-deficient cells are selected by subjecting lithium (Li) loaded cells to an acidic extracellular environment. Under these conditions, NHE exchanges intracellular Li^+ for extracellular protons, thus only NHE-deficient cells can avoid a toxic intracellular acidosis and survive.
An NHE-deficient cell line, NHD C8, is generated by mutagenesis and selection from the cell line Dede (ATCC® CCL-39™). The mutagenesis is induced by treating Dede CCL-39 cells with EMS (Sigma-Aldrich) in growth media at a final concentration of 500 μg/ml for 20 h. […]
To measure NHE activity, the intracellular pH of the cells is reduced by addition of NH4Cl. The sodium-dependent intracellular pH change is then measured by the intracellular pH-sensitive fluorescein dye, BCECF-AM (Molecular Probes-ThermoFisher Scientific). […] The plate is immediately read for fluorescent intensity at an excitation wavelength of 505 nm and emission wavelength of 550 nm. […]

IC50: 5.76 nM
Compound: CN1Cc2c(Cl)cc(Cl)cc2[C@H](c2cccc(S(=O)(=O)NCCOCCOCCN/C(=N\C(N)=O)NCCCCN/C(=N/C(N)=O)NCCOCCOCCNS(=O)(=O)c3cccc([C@@H]4CN(C)Cc5c(Cl)cc(Cl)cc54)c3)c2)C1.Cl.Cl [Example 2, [[4-[[N′-Carbamoyl-N-[2-[2-[2-[[3-[(4S)-6,8-dichloro-2-methyl-3,4-dihydro-1H-isoquinolin-4-yl]phenyl]sulfonylamino]ethoxy]ethoxy]ethyl]carbamimidoyl]amino]butylamino]-[2-[2-[2-[[3-[(4S)-6,8-dichloro-2-methyl-3,4-dihydro-1H-isoquinolin-4-yl]phenyl]sulfonylamino]ethoxy]ethoxy]ethylamino]methylene]urea dihydrochloride]
